Patent publication US20260263470A1, “A METHOD FOR THE TREATMENT OF CHRONIC HAND ECZEMA IN PATIENTS WITH MODERATE TO SEVERE CHRONIC HAND ECZEMA” (priority 2023, published 2026)
Values after ≈ are worked out from the molar mass of the structure shown.

Tests used:
[1] = test system: adult patients with moderate-to-severe CHE; assay: DELTA 1 and DELTA 2 together (pooled analyses and statements made for both trials); assay type: in vivo, human
Experimental: In a pooled analysis of both trials, changes in EQ-5D scores from baseline to week 16 were assessed in all patients and in a post-hoc analysis of patients achieving clinical responses (defined as Hand Eczema Area and Severity Index (HECSI)-50, -75, and -90, Investigator's Global Assessment for CHE treatment success [IGA-CHE TS; clear or almost clear skin with a ≥2-step improvement from baseline] and ≥4-point improvements in Hand Eczema Symptom Diary (HESD) itch and pain scores.
DELTA 1 and DELTA 2 were phase 3 trials of identical design. […] Data were pooled from both trials and changes in DLQI scores were assessed from baseline to week 16 in all patients and in a post-hoc analysis of patients achieving clinical responses, defined as Hand Eczema Area and Severity Index (HECSI)-50, -75, and -90, Investigator's Global Assessment for CHE treatment success (IGA-CHE TS; a score of 0/1 with a ≥2-step improvement from baseline), and ≥4-point improvements in Hand Eczema Symptom Diary (HESD) itch and pain scores.
The Hand Eczema Symptom eDiary (HESD) captured patient-reported severity of itch and pain over the past 24 hours on an 11-point numeric rating scale (0=no itch/pain to 10=severe itch/pain). Changes in itch and pain from baseline were assessed daily during Week (W)1 and weekly from W1-16.

[2] = Systemic exposure in DELTA 2: plasma concentrations of delgocitinib after cream application (LC/MS); assay type: in vivo, human; conditions: for plasma concentration of delgocitinib (geometric mean): 2-6 hours after application of cream 20 mg/g twice daily
Description: (§1) Data are reported as geometric means.

[3] = test system: IL-4 release in whole-blood; assay: in vitro IL-4 release assay in whole-blood of healthy volunteers; assay type: cell-based; conditions: Homo sapiens; whole-blood of healthy volunteers (n=4)
Description: as §1

[4] = Phase 1 trial, single oral doses of delgocitinib in healthy volunteers; assay type: in vivo; conditions: human, plasma, single oral dose 1.5 mg, read-out: peak systemic exposure (geometric mean Cmax)
Description: as §1

[5] = Plasma protein binding; assay type: in vitro ADME
[6] = Half-life following repeated topical administration of delgocitinib cream; assay type: in vivo; conditions: human, plasma, 20 mg/g

Structure (SMILES): C[C@H]1CN(C(=O)CC#N)[C@]12CCN(c1ncnc3[nH]ccc13)C2 [delgocitinib, Delgocitinib]
- rates of all AEs, AEs related to study drug and AEs leading to discontinuation of study drug, versus cream vehicle ([1]; baseline to trial completion): numerically higher with cream vehicle compared to delgocitinib
- onset of itch and pain reduction ([1]; pooled): Early onset of itch and pain reduction was observed within W1
- decrease of detectable absorption by week 16 ([2]; DELTA 2): 48%
- plasma concentration of delgocitinib (geometric mean) ([2]; DELTA 2, Week 1): 0.21 ng/mL
- plasma concentration of delgocitinib (geometric mean) ([2]; DELTA 2, Week 4): 0.20 ng/mL
- plasma concentration of delgocitinib (geometric mean) ([2]; DELTA 2, Week 16): 0.12 ng/mL
- mean plasma concentration in the remaining subjects with detectable absorption ([2]; DELTA 2, week 16): 0.11 ng/mL
- steady state reached ([2]; given as Delta 2): ≤ 8 days
- AUC(0-t) ([2]; human, plasma, topical, 20 mg/g, given as Delta 2, day 8, read-out: area under the concentration-curve from time 0 to 12 hours (AUC0-12), geometric mean): 3.7 ng·h/mL
- Cmax ([2]; human, plasma, topical, 20 mg/g, given as Delta 2, day 8, read-out: geometric mean maximum plasma concentration (Cmax)): 0.46 ng/mL
- IC50 [3]: 0.0172 µg/mL (≈ 0.0554 µM)
- Cmax [4]: 7.2 ng/mL
- fraction unbound [5]: 0.71 to 0.78
- half-life [6]: 20.3 h
